Laboratory results taken from publication PMC11626117 (Proceedings of the National Academy of Sciences of the …, 2024).

How the values were obtained:
CoaA [1] = target: T1, CoaA (Mycobacterium tuberculosis, UniProt P9WPA7)
CoaA [2] = target: T1, CoaA; test: ADP-Glo luminescent kinase assay; type: biochemical; settings: 5 mM ATP, 50 mM HEPES, 25 mM KCl, 20 mM MgCl2, 30 min

T1 sequence (P9WPA7 whole entry, looked up): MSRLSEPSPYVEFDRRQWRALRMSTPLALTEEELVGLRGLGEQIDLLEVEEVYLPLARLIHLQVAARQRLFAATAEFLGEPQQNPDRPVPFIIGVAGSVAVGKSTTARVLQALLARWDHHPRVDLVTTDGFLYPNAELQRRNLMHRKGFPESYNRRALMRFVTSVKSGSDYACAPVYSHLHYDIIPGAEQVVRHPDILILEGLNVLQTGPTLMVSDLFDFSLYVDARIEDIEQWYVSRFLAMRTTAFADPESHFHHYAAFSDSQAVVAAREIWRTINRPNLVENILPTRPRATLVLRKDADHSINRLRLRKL

Structure (SMILES)	ADP-Glo luminescent kinase assay (CoaA [1])	Michaelis-Menten curve, constant not given (CoaA [2])
Nc1ncnc2c1ncn2[C@@H]1O[C@H](COP(=O)(O)OP(=O)(O)OP(=O)(O)O)[C@@H](O)[C@H]1O [ATP]	CoaA showed robust ATPase activity	–
CC(C)(CO)[C@@H](O)C(=O)NCCC(=O)O [pantothenate]	–	CoaA showed robust ATPase activity
